# Data reported in ChEMBL document CHEMBL6078714, “Discovery of N-Trifluoromethylated Noscapines as Novel and Potent Agents for the Treatment of Glioblastoma” (J Med Chem, 2025).
# The source made the active and inactive calls. No cut-off for these calls is given here.
# Key:
# U-87 MG [1] = test: Antiproliferative activity against human U87 cells; assay type: functional, cell-based, U-87MG ATCC
# U-118-MG [2] = test: Antiproliferative activity against human U-118-MG cells assessed as inhibition of cell proliferation incubated for 72 hrs by CCK8 assay; assay type: functional, cell-based
# [3] = Nephrotoxicity in male BALB/c nude mouse xenografted with human U-118-MG cells assessed as shedding of renal tubular epithelial cells at 0.5 mg/kg, ip administered daily for 4 weeks by H and E staining based analysis; assay type: toxicity, organism-based; details: in vivo, 672 h
# [4] = Nephrotoxicity in male BALB/c nude mouse xenografted with human U-118-MG cells assessed as intravascular necrosis of renal tubules at 0.5 mg/kg, ip administered daily for 4 weeks by H and E staining based analysis; assay type: toxicity, organism-based; details: in vivo, 672 h
# [5] = Toxicity in male BALB/c nude mouse xenografted with human U-118-MG cells assessed as body weight loss at 2.5 mg/kg, ip administered daily for 4 weeks; assay type: organism-based; details: in vivo, 672 h
# U-118-MG [6] = test: Cell cycle arrest in human U-118-MG cells assessed as accumulation of cells at S phase at 100 uM incubated for 24 hrs by flow cytometric analysis (reference value: 10.7 %); assay type: functional
# U-118-MG [7] = test: Cell cycle arrest in human U-118-MG cells assessed as accumulation of cells at G1 phase at 100 uM incubated for 24 hrs by flow cytometric analysis (reference value: 56.2 %); assay type: functional
# U-118-MG [8] = test: Antitumor activity against human U-118-MG cells xenografted in male BALB/c nude mouse assessed as tumor growth inhibition at 2.5 mg/kg, ip administered daily for 4 weeks relative to control; assay type: functional; details: 672 h, read-out: TGI
# U-87 MG [9] = test: Antiproliferative activity against human U-87 MG cells assessed as inhibition of cell proliferation incubated for 72 hrs by CCK8 assay; assay type: functional, cell-based, U-87MG ATCC
# [10] = Permeability of compound incubated for 12 hrs by PAMPA; assay type: ADME; details: read-out: permeability
# U-118-MG [11] = test: Cell cycle arrest in human U-118-MG cells assessed as accumulation of cells at G2 phase at 100 uM incubated for 24 hrs by flow cytometric analysis (reference value: 30.6 %); assay type: functional
# U-118-MG [12] = test: Antiproliferative activity against human U-118- MG cells assessed as inhibition of cell proliferation by crystal violet staining based analysis; assay type: functional; details: dose 10-40 µM
# U-118-MG [13] = test: Antiproliferative activity against human U-118- MG cells assessed as inhibition of cell proliferation at 10 uM by crystal violet staining based analysis; assay type: functional
# [14] = Stability of compound in 0.1M HCl solution at pH 1.0 measured after 48 hrs by 1H NMR analysis; assay type: physicochemical; details: buffer, pH 1, 48 h
# [15] = Stability of compound in sodium phosphate buffer at pH 7.4 measured after 48 hrs by 1H NMR analysis; assay type: physicochemical; details: pH 7.4, 48 h
# [16] = Stability of compound in sodium carbonate buffer at pH 10 measured after 48 hrs by 1H NMR analysis; assay type: physicochemical; details: pH 10, 48 h
# [17] = Stability of compound in 0.1M HCl solution at pH 1.0 assessed as parent compound remaining measured after 6 hrs by 1H NMR analysis; assay type: physicochemical; details: read-out: Stability
# U-118-MG [18] = test: Cell cycle arrest in human U-118-MG cells assessed as accumulation of cells at S phase at 20 uM incubated for 24 hrs by flow cytometric analysis (reference value: 10.7 %); assay type: functional
# U-118-MG [19] = test: Antitumor activity against human U-118-MG cells xenografted in male BALB/c nude mouse assessed as tumor growth inhibition at 10 mg/kg, ip administered daily for 4 weeks relative to control; assay type: functional; details: 672 h, read-out: TGI
# [20] = Drug distribution in male Swiss albino mouse brain at 5 mg/kg, iv measured after 0.5 hrs; assay type: ADME, organism-based; details: read-out: Ct
# U-118-MG [21] = test: Cell cycle arrest in human U-118-MG cells assessed as accumulation of cells at G2 phase at 20 uM incubated for 24 hrs by flow cytometric analysis (reference value: 30.6 %); assay type: functional
# U-118-MG [22] = test: Cell cycle arrest in human U-118-MG cells assessed as accumulation of cells at G1 phase at 20 uM incubated for 24 hrs by flow cytometric analysis (reference value: 56.2 %); assay type: functional
# [23] = Ratio of drug concentration in male Swiss albino mouse brain to plasma at 5 mg/kg, iv measured after 0.5 hrs; assay type: ADME, organism-based; details: read-out: BPR
# U-118-MG [24] = test: Induction of apoptosis in human U-118-MG cells assessed as apoptotic rate at 20 uM incubated for 24 hrs by Annexin V-FITC/PI staining based flow cytometric analysis relative to control; assay type: functional
# [25] = Drug distribution in male Swiss albino mouse plasma at 5 mg/kg, iv measured after 0.5 hrs; assay type: ADME, organism-based
# [26] = Stability of compound in 0.1M HCl solution at pH 1.0 assessed as parent compound remaining measured after 48 hrs by 1H NMR analysis; assay type: physicochemical; details: read-out: Stability
Compound,IC50 (U-118-MG [2]) [µM],IC50 (U-87 MG [9]) [µM],Papp at 12 h [10] [×10⁻⁶ cm/s],Activity (U-118-MG [12]),Activity (U-118-MG [13]),Stability [14],Stability [15],other results
CC1=C2CC[C@@](C)(O)[C@@H]2[C@H]2OC(=O)[C@@H](CN(C)C)[C@@H]2CC1,,,,,,,,IC50 (U-87 MG [1]): 21 µM
Cn1nnc2c(C(N)=O)ncn2c1=O [TEMOZOLOMIDE],> 100,> 100,1.47,,,,,Activity [3]: Toxic; Activity [4]: Toxic; Activity [5]: Toxic; Activity (U-118-MG [6]): 18.9%; Activity (U-118-MG [7]): 41.3%; inhibition in vivo at 2.5 mg/kg (U-118-MG [8]): 80.4%; Activity (U-118-MG [11]): 36.8%
COc1ccc2c(c1OC)C(=O)O[C@@H]2[C@H]1c2c(c(I)c3c(c2OC)OCO3)CCN1C(F)(F)F,17.5,33.4,15.8,Dose-dependent-effect,Active,,,
FC(F)(F)N1CCc2ccccc2[C@@H]1c1ccccc1,,,,,,Stable,Stable,
FC(F)(F)N1CCc2ccccc2C1,,,,,,Stable,Stable,
FC(F)(F)N1CCc2ccccc2C1Cc1ccccc1 (configuration not stated),,,,,,Stable,Stable,
CC1c2ccccc2CCN1C(F)(F)F (configuration not stated),,,,,,Stable,Stable,
COc1ccc2c(c1OC)C(=O)O[C@@H]2[C@H]1c2c(c(Cl)c3c(c2OC)OCO3)CCN1C(F)(F)F,9.83,25.8,16.8,Dose-dependent-effect,Active,,,
COc1ccc2c(c1OC)C(=O)O[C@@H]2[C@H]1c2c(c(C#N)c3c(c2OC)OCO3)CCN1C(F)(F)F,19.7,39.1,12.8,Dose-dependent-effect,Active,,,
FC(F)(F)N1CCCc2ccccc21,,,,,,Unstable,Unstable,Stability [16]: Unstable; remaining at 6 h [17]: 7%
COc1ccc2c(c1OC)C(=O)O[C@@H]2[C@H]1c2c(cc3c(c2OC)OCO3)CCN1C [NOSCAPINE],> 100,> 100,11,,,,,Activity (U-118-MG [18]): 10.7%; inhibition in vivo at 10 mg/kg (U-118-MG [19]): 31%; concentration at 0.5 h [20]: 19.6 ng/g; Activity (U-118-MG [21]): 34.1%; Activity (U-118-MG [22]): 52.9%; Kp at 0.5 h [23]: 0.43; Activity (U-118-MG [24]): 16.3%; concentration at 0.5 h [25]: 45.3 ng/mL
COc1ccc2c(c1OC)C(=O)O[C@@H]2[C@H]1c2c(cc3c(c2OC)OCO3)CCN1C(F)(F)F,31.3,67.5,18,Dose-dependent-effect,Active,,Stable,Stability [16]: Stable; remaining at 48 h [26]: 73%
